# Source: patent US20190133930A1, “Methods of Anesthetizing Nerve Tissue in the Trigeminal Nerve Pathway and Medical Uses Thereof” (Apollonia, LLC, priority 2014, published 2019)
# Structures can show the parent of a compound that is named as a salt.
# Columns and labels:
# Format in all cases: in vitro ADME
# [1] = MatTek EpiAirway cell monolayer permeability of local anesthetics after excipient pre-treatment; details: human, pH 6, EpiAirway, 10 mM test article, donor pH 6.0, 37° C., 0.5 hr; excipient: none
# Caco-2 cell monolayer = Caco-2 cell monolayer apical to basolateral permeability of local anesthetic after excipient pre-treatment; details: Caco-2; sodium caprate 0.2-2.0% versus no excipient; dose dependent
# Protocol: (§1) A first experiment was performed to test the ability of a mucosal absorption enhancer to promote transport of a local anesthetic agent across a mucosal epithelial cell monolayer. In this experiment, the Caco-2 cell line (an intestinal mucosal cell line) was grown and maintained at a pH of 6.0 for the length of time sufficient to establish tight junctions between the cells in the monolayer. After formation of the monolayer, sodium caprate was administered to the apical side of the Caco-2 cell monolayer at a concentration depending on the given test sample. After 20 minutes, the sodium caprate was washed off of the monolayer. Tetracaine hydrochloride was then administered to the apical side of the Caco-2 cell monolayer at a concentration of 10 mM. An additional test sample including tetracaine but lacking sodium caprate was also administered to the apical side of a separate Caco-2 cell monolayer as a control. The assay duration was 30 minutes. The apical to basolateral permeability rate coefficient of tetracaine across the Caco-2 cell monolayer was determined by LC/MS/MS for each test composition. The permeability rate coefficient (Papp) was based on the percent of the drug that is transported across the epithelial monolayer as a function of time and surface area of the monolayer. Drug permeability across the Caco-2 cell monolayers is a well-known model of transmucosal drug absorption in humans.
# (§2) Caco-2 cells grown in tissue culture flasks were trypsinized, suspended in medium, and the suspensions were applied to wells of a Millipore 96 well Caco-2 plate. The cells were allowed to grow and differentiate for three weeks, feeding at 2-day intervals.
# (§3) The Caco-2 cells were treated with the excipient (sodium caprate) for 20 minutes at concentrations of 0.2%, 0.5%, 1.0%, and 2.0%. The excipient was then washed off of the Caco-2 cell monolayer. For Apical to Basolateral (A→B) permeability, the test agent (10 mM Tetracaine HCl) was added to the apical (A) side and amount of permeation was determined on the basolateral (B) side. The A-side buffer contained 100 μM Lucifer Yellow (LY) dye and 10 μM Atenolol, in Transport Buffer (1.98 g/L glucose in 10 mM HEPES, 1× Hank's Balanced Salt Solution without Mg2+ and Ca2+) pH 6.0 for test articles. The B-side buffer was standard Transport Buffer, pH 7.4. Caco-2 cells were incubated with these buffers for 0.5 hr, and the receiver side buffer was removed for analysis by LC/MS/MS (propranolol used as internal LC/MS standard).
# (§4) To verify that the Caco-2 cell monolayers were properly formed (and remained intact during the assay), aliquots of the cell buffers were analyzed by fluorescence and LC/MS/MS to determine the transport of the impermeable dye Lucifer Yellow and atenolol, respectively. Any deviations from control values are reported.
# (§5) Data are expressed as permeability (Papp): Papp=(dQ/dt)/C0A
# (§6) Where dQ/dt is the rate of permeation, C0 is the initial concentration of test agent, and A is the area of the monolayer.
# (§7) For analytical method development, the analyte signal was optimized for each compound by ESI positive or negative ionization mode. An MS2 scan or an SIM scan was used to optimize the fragmenter voltage and a product ion analysis was used to identify the best fragment for analysis, and the collision energy was optimized using a product ion or MRM scan. An ionization ranking was assigned indicating the compound's ease of ionization.
# (§8) Samples were analyzed by LC/MS/MS using an Agilent 6410 mass spectrometer coupled with an Agilent 1200 HPLC and a CTC PAL chilled autosampler, all controlled by MassHunter software (Agilent). After separation on a C18 reverse phase HPLC column (Agilent Zorbax StableBond 3.5 μm, 2.1×30 mm) using an acetonitrile-water gradient system, peaks were analyzed by mass spectrometry (MS) using ESI ionization in MRM mode.
# [2] = as above; details: human, Caco-2, pH 6, Caco-2, A→B, 10 mM Tetracaine HCl, apical pH 6.0, 0.5 hr
# Protocol: as §1, §2, §3, §4, §5, §6, §7, §8
# [3] = MatTek EpiAirway cell monolayer permeability of local anesthetics after excipient pre-treatment; details: human, pH 6, EpiAirway, 10 mM test article, donor pH 6.0, 37° C., 0.5 hr
# Protocol: The EpiAirway™ cell line is derived from normal human respiratory airway cells and models the mucosal tissue in the nasal cavity's respiratory airway, the main site of drug absorption following intranasal administration.
# EpiAirway™ tissues were treated with the excipients (0.5% sodium caprate, 0.5% sodium deoxycholate, 0.5% polyoxyethylene 9 lauryl ether, and 0.5% lysophosphatidylcholine) for 20 min. The excipients were then washed off the EpiAirway™ tissues. […] The receiver wells contained standard transport buffer. The fluorescent marker Lucifer Yellow and atenolol (10 μM) were also included to monitor monolayer integrity at the end of the assay. The plates were incubated at 37° C. for 30 min. An aliquot of the receiver chamber was removed for analysis.
# At the end of the incubation period, the donor plate was removed from the receiver plate. The donor and receiver samples were analyzed and quantified by LC-MS/MS (propranolol used as internal LC-MS standard).
# To verify the monolayer integrity, aliquots of the cell buffers were analyzed by fluorescence and LC-MS/MS to determine the transport of the impermeable dye Lucifer Yellow and atenolol, respectively.
# as §5, §6
# For mass spectroscopy method development, the signal was optimized for each compound by electrospray ionization (ESI) in positive ionization mode. An MS2 scan was used to optimize the precursor ion mass, and an SIM scan was used to optimize the fragmenter voltage. Product ion analysis was used to identify the best fragment and collision energy for analysis.
# Following MRM method optimization, a test injection was performed and an ionization ranking was assigned indicating the compound's ease of ionization.
# as §8, with “um,” for “μm,”, “gradient,” for “gradient system,”, “spectrometry” for “spectrometry (MS)”, “mode. Diclofenac was utilized as an analytical internal standard (IS).” for “mode.”
# [4] = 20 min pre-treatment with 0.5% Sodium Caprate
# [5] = 20 min pre-treatment with 0.5% Lysophosphatidylcholine
# [6] = 20 min pre-treatment with 0.5% Polyoxyethylene 9 Lauryl Ether
# [7] = 20 min pre-treatment with 0.5% Sodium Deoxycholate
"Papp A→B at 30 min, 10 mM [1] [×10⁻⁶ cm/s]",effect of sodium caprate on permeability across a mucosal epithelial cell monolayer (Caco-2 cell monolayer),"Papp A→B at 0.5 hr, 10 mM ([2]; 20 min pre-treatment with 0.2% Sodium Caprate) [×10⁻⁶ cm/s]","Papp A→B at 0.5 hr, 10 mM [2, 4] [×10⁻⁶ cm/s]","Papp A→B at 0.5 hr, 10 mM ([2]; 20 min pre-treatment with 1.0% Sodium Caprate) [×10⁻⁶ cm/s]","Papp A→B at 0.5 hr, 10 mM ([2]; 20 min pre-treatment with 2.0% Sodium Caprate) [×10⁻⁶ cm/s]","Papp A→B at 0.5 hr, 10 mM ([2]; excipient: None) [×10⁻⁶ cm/s]","Papp A→B at 30 min, 10 mM [3, 5] [×10⁻⁶ cm/s]","Papp A→B at 30 min, 10 mM [3, 6] [×10⁻⁶ cm/s]","Papp A→B at 30 min, 10 mM [3, 4] [×10⁻⁶ cm/s]","Papp A→B at 30 min, 10 mM [3, 7] [×10⁻⁶ cm/s]",Compound
10.8,significantly improved the permeability,32.2,55.9,54.8,139,17.7,71.6,126,56.8,155,"CCCCNc1ccc(C(=O)OCCN(C)C)cc1 [Tetracaine, Tetracaine HCl]"
19.2,,,,,,,173,189,116,218,"CCCCN1CCCCC1C(=O)Nc1c(C)cccc1C (stereo not shown) [Bupivacaine, Bupivacaine HCl]"
